PMC11117541, “The Truncated Peptide AtPEP1^(9–23) Has the Same Function as AtPEP1^(1–23) in Inhibiting Primary Root Growth and Triggering of ROS Burst” (Antioxidants, 2024)
Where a SMILES comes first, the peptide text is derived from it.

Experiments:
[1] = test system: WOX5::GFP (quiescent center); experiment: WOX5::GFP reporter in quiescent centre of root tips; type: in vivo, Arabidopsis thaliana; settings: 500 nM peptide, four days, confocal microscopy, n = 20
From the text: (§1) All plants used in this study are of the Arabidopsis thaliana accession Columbia-0 (Col-0) background, including the wild-type, mutant line pepr1-2pepr2-2 (pepr1/2, AT1G73080 and AT1G17750) and transgenic lines expressing WOX5::GFP (AT3G11260) and DR5::GFP [35]. DR5 was created by petforming site-directed mutations in a natural composite auxin response element (AuxRE) found in the soybean GH3 promoter. DR5 consisted of tandem direct repeats of 11 bp (CCTTTTGTCTC)
(§2) Five-day-old seedlings were transferred from 1/2 MS medium to 1/2 MS medium supplemented with or without elicitor for four days. The transferred seedlings were photographed every day for a total of four days. The primary root length was measured using ImageJ software (V 1.8.0). After four days of elicitor treatment, the root tips of seedlings were observed by microscope and the fluorescence from root tip cells of GFP tag seedlings were excited with a 488 nm laser. Emission was detected between 495 and 550 nm. The images were acquired with an OLYMPUS FV10-MCPUS confocal laser scanning microscope. Images were processed using LSM image examiner software (FV10-ASW3.1) and Adobe Photoshop CS4 version 11.0.2 (Adobe Systems, San Jose, CA, USA).

[2] = test system: ROS burst in Arabidopsis leaves (Col-0); experiment: ROS burst, luminol dependent assay in Col-0 leaves; type: cell-based, Arabidopsis thaliana; settings: for concentration at which ROS burst is triggered: Col-0 leaf pieces, luminol L-012/HRP, luminescence recorded 30 min
Description: The measurement of ROS burst was carried out using a luminol dependent assay. Briefly, leaf samples were cut into small pieces and placed in a 96-well plate containing 0.1 mL reaction solution (2 µg/mL horseradish peroxidase, 200 µM luminol L-012). Luminescence signal was immediately measured upon the addition elicitor peptides and recorded for a period of 30 min. The total relative light units (RLUs) measured within a 15 min time was plotted.

[3] = test system: root tip cells of Arabidopsis seedlings; experiment: Root tip morphology, generation of root hairs; type: in vivo, Arabidopsis thaliana; settings: peptide for 4 days, up to 500 nM, n = 20
Description: as §2

[4] = test system: DR5::GFP (auxin maxima in root tips); experiment: DR5::GFP reporter for auxin maxima in root tips; type: in vivo, Arabidopsis thaliana; settings: 500 nM peptide, four days, confocal microscopy, n = 20, one-way ANOVA
From the text: as §1, §2

[5] = test system: shoot (rosette) of Arabidopsis seedlings; experiment: Shoot growth, diameter of rosettes (Figure S1); type: in vivo, Arabidopsis thaliana; settings: for Mean diff, A2 - B2, diameter of rosettes: two-way ANOVA output, by table order A = mock, B = peptide, row 2 = Day 4
[6] = test system: primary root growth of Arabidopsis thaliana Col-0 seedlings; type: in vivo; settings: n = 20; for inhibitory effect on primary root growth (in words): different concentrations up to 500 nM, 4 days; for concentration at which primary root growth is inhibited: five-day-old Col-0 seedlings transferred to 1/2 MS with peptide, up to 4 days
Description: For sterile seedlings, the seeds were first surface-sterilized with 75% ethanol twice. Then, after cold treatment at 4 °C for 2 days, the seeds were germinated on 1/2 Murashige-Skoog (MS) medium supplemented with 0.8% agar and 1% sucrose. For four-week-old plants, the seeds after cold treatment at 4 °C for 2 days were grown in a 1:1 mixture of sand: humus. Both growth environments were carried out in a growth cabinet with 12 h of light, a temperature of 22 °C, and 60% humidity.
as §2

| Compound | WOX5 expression (WOX5::GFP signaling width) compared with control [1] | concentration at which ROS burst is triggered ([2]; n = 4) [nM] | generation of root hairs / maturation of root tip cells (in words) [3] | maximum levels of auxin in root tips (DR5::GFP fluorescence) compared with control [4] | Mean diff, A2 - B2, diameter of rosettes [5] | inhibitory effect on the shoot (in words) ([5]; Figure S1, Table S7) | inhibitory effect on primary root growth (in words) [6] | concentration at which primary root growth is inhibited [6] [nM] | total ROS within 15 min compared to the control group ([2]; 10 nM peptide) | concentration at which total ROS within 15 min was significantly higher than the control ([2]; total RLU within 15 min, one-way ANOVA, n = 4) | concentration that completely inhibited the primary root growth ([6]; five-day-old Col-0 seedlings, 4 days on peptide medium) [nM] |
| --- | --- | --- | --- | --- | --- | --- | --- | --- | --- | --- | --- |
| AtPEP1^(5–23): truncated peptide of AtPEP1(1–23), residues 5–23 (KAKQRGKEKVSSGRPGQHN; Elicitor peptide 1; UniProt Q9LV87 74-92, looked up, fragment) | increase in WOX5 expression | 10 | more efficient than AtPEP1^(1–23) | significantly reduced | 0.1141 |  |  |  |  |  |  |
| AtPEP1^(9–23): truncating eight amino acids from the N-terminus of AtPEP1(1–23) (RGKEKVSSGRPGQHN; Elicitor peptide 1; UniProt Q9LV87 78-92, looked up, fragment) | increase in WOX5 expression | 10 | more efficient than AtPEP1^(1–23) | significantly reduced | 0.1045 |  |  |  |  |  |  |
| AtPEP1^(9–22): C-terminal truncated peptide created from AtPEP1(9–23) (RGKEKVSSGRPGQH; Elicitor peptide 1; UniProt Q9LV87 78-91, looked up, fragment) |  | 100 | did not promote the generation of root hairs | did not show significant changes | -0.02327 |  |  |  |  |  |  |
| AtPEP1^(13–23): truncating 12 amino acids from the N-terminus of AtPEP1(1–23) (KVSSGRPGQHN; Elicitor peptide 1; UniProt Q9LV87 82-92, looked up, fragment) |  | 10 | did not promote the generation of root hairs | did not show significant changes | 0.03538 | does not inhibit | did not show an obvious inhibitory effect |  |  |  |  |
| CC(C)[C@H](NC(=O)[C@H](CCCCN)NC(=O)[C@H](CCC(=O)O)NC(=O)[C@H](CCCCN)NC(=O)CNC(=O)[C@H](CCCNC(=N)N)NC(=O)[C@H](CCC(N)=O)NC(=O)[C@@H](N)CCCCN)C(=O)N[C@@H](CO)C(=O)N[C@@H](CO)C(=O)NCC(=O)N[C@@H](CCCNC(=N)N)C(=O)N1CCC[C@H]1C(=O)NCC(=O)N[C@@H](CCC(N)=O)C(=O)N[C@@H](Cc1c[nH]cn1)C(=O)N[C@@H](CC(N)=O)C(=O)O [AtPEP1^(7–23)] (H-KQRGKEKVSSGRPGQHN-OH; N-terminus and C-terminus assumed) | increase in WOX5 expression | 10 | more efficient than AtPEP1^(1–23) | significantly reduced | 0.1995 |  |  |  |  |  |  |
| AtPEP1^(11–23): truncated peptide of AtPEP1(1–23), residues 11–23 (KEKVSSGRPGQHN; Elicitor peptide 1; UniProt Q9LV87 80-92, looked up, fragment) | increase in WOX5 expression | 10 | did not promote the generation of root hairs | significantly reduced | 0.1293 |  | lower than that of AtPEP1^(1–23) | 5 |  |  |  |
| AtPEP1^(1–23): plant elicitor peptide 1 (PEP1) from Arabidopsis thaliana, composed of 23 amino acids, immune elicitor (ATKVKAKQRGKEKVSSGRPGQHN; Elicitor peptide 1; UniProt Q9LV87 70-92, looked up) [reference compound] | increase in WOX5 expression | 10 | promoted the generation of root hairs | significantly reduced | 0.05081 |  |  | 50 | no significant difference | greater than or equal to 100 nM | 500 |
